Measured values: the supplement of paper PMC10307832

Columns and labels:
Assay in all cases: relative viability (nuclei count vs DMSO), 5 days (fraction); higher = more cells survive
[1] = compound: OCc1c[nH]c2ccccc12 [Indole-3-carbinol] + CS(=O)(=O)CCNCc1ccc(-c2ccc3ncnc(Nc4ccc(OCc5cccc(F)c5)c(Cl)c4)c3c2)o1 [Lapatinib] (partner 2 µM)
Method in brief: (§1)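 Lung cancer cell lines, seeded in 1536-well plates, were treated the following day by pin tool with a single drug or with five library-drug doses (not always all listed) in √10 steps on top of a fixed anchor-drug dose. Cells were fixed and nuclei stained in one step after 5 days, and nuclei were counted. Relative viability is the nuclei count for treated wells divided by that for vehicle wells, reported as medians of duplicate plates.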

[2] = compound: OCc1c[nH]c2ccccc12 [Indole-3-carbinol] + NC(=O)Nc1cc(-c2cccc(F)c2)sc1C(=O)N[C@H]1CCCNC1 [AZD7762] (partner 0.2 µM)
Method in brief: as §1

[3] = compound: OCc1c[nH]c2ccccc12 [Indole-3-carbinol] + O=C(CCCCCCC(=O)Nc1ccccc1)NO [Vorinostat] (partner 1 µM)
Method in brief: as §1

[4] = compound: OCc1c[nH]c2ccccc12 [Indole-3-carbinol] + CC(=O)Nc1cccc(-n2c(=O)n(C3CC3)c(=O)c3c(Nc4ccc(I)cc4F)n(C)c(=O)c(C)c32)c1 [Trametinib] (partner 0.02 µM)
Method in brief: as §1

[5] = compound: OCc1c[nH]c2ccccc12 [Indole-3-carbinol]
Method in brief: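 Lung cancer cell lines received five library-drug doses (not always all listed) spaced by √10, pinned on vehicle-anchored 1536-well plates after an overnight stay at 37 °C. Five days later, with no medium change, nuclei were Hoechst-stained, imaged at 4× and counted with MetaXpress. Viability is treated-well nuclei relative to vehicle-well nuclei, as a median across plates. Passing plates had control CV below 25% and at least one doubling.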

Cell Line	relative viability ([1]; first compound 0.253 µM)	relative viability ([1]; first compound 0.8 µM)	relative viability ([1]; first compound 2.53 µM)	relative viability ([1]; first compound 8 µM)	relative viability ([2]; first compound 0.253 µM)	relative viability ([2]; first compound 0.8 µM)	relative viability ([2]; first compound 2.53 µM)	relative viability ([2]; first compound 8 µM)	relative viability ([3]; first compound 0.253 µM)	relative viability ([3]; first compound 0.8 µM)	relative viability ([3]; first compound 2.53 µM)	relative viability ([3]; first compound 8 µM)	relative viability ([4]; first compound 0.253 µM)	relative viability ([4]; first compound 0.8 µM)	relative viability ([4]; first compound 2.53 µM)	relative viability ([4]; first compound 8 µM)	relative viability ([5]; 0.253 µM)	relative viability ([5]; 0.8 µM)	relative viability ([5]; 2.53 µM)	relative viability ([5]; 8 µM)
NCI-H2170	0.281	0.28	0.253	0.289	1.01	0.898	0.89	0.894	0.906	0.832	0.851	0.778	0.882	0.859	0.892	0.869	0.999	1	0.929	0.955
NCI-H1793	1.18	0.621	0.702	0.623	0.424	0.468	0.507	0.455	0.915	0.798	0.898	0.632	0.403	0.442	0.455	0.481	0.943	0.841	1.04	0.906
HCC-366	1.07	0.867	0.985	0.987	0.265	0.242	0.355	0.258	0.355	0.331	0.351	0.281	0.358	0.322	0.422	0.304	1.09	0.905	0.999	1.03
NCI-H1651	0.619	0.69	0.921	0.704	0.448	0.441	0.438	0.437	0.517	0.55	0.616	0.646	0.819	0.787	0.823	0.822	0.994	0.97	1.05	0.945
LC-2-ad	0.977	0.974	0.893	0.938	0.865	0.873	0.828	0.82	0.765	0.742	0.696	0.662	0.893	0.879	0.897	0.869	1.04	0.951	0.971	1.01
HCC-827	0.202	0.18	0.227	0.191	0.228	0.192	0.213	0.265	0.767	0.903	0.896	0.839	0.516	0.542	0.505	0.533	1.07	1.03	1.06	0.987
LOU-NH91	0.762	0.706	0.748	0.771	0.791	0.703	0.77	0.755	0.924	0.865	0.961	0.945	0.81	0.747	0.788	0.802	0.957	0.933	0.95	1.04
LU99A	0.893	0.968	0.973	0.89	0.379	0.392	0.434	0.329	0.504	0.514	0.59	0.455	0.5	0.517	0.521	0.545	0.946	0.915	1.01	0.905
HOP-62	0.957	0.874	1.11	0.966	0.65	0.61	0.631	0.607	0.674	0.534	0.714	0.582	0.348	0.373	0.358	0.32	1.02	0.933	1.03	0.939
NCI-H1734	0.979	1.02	1.04	0.955	0.519	0.601	0.551	0.512	0.799	0.809	0.803	0.774	0.676	0.762	0.617	0.651	0.997	0.866	0.973	0.932
EKVX	0.203	0.18	0.207	0.198	0.759	0.752	0.744	0.633	0.745	0.631	0.942	0.697	0.298	0.344	0.297	0.313	1.04	0.96	0.999	0.943
HARA	0.932	0.737	0.711	0.654	0.355	0.239	0.313	0.463	0.515	0.627	0.505	0.511	0.673	0.834	0.818	0.652	0.96	0.894	1.06	0.889
EMC-BAC-2	0.879	0.76	0.852	0.813	1.15	1.17	1.05	1.11	0.423	0.444	0.421	0.447	0.789	0.918	0.879	0.849	0.957	0.949	1.05	0.912
PC-14	0.288	0.321	0.342	0.266	0.342	0.315	0.331	0.327	0.665	0.594	0.724	0.649	0.7	0.729	0.818	0.711	1.04	0.948	1	0.953
NCI-H1755	1.06	0.978	1.07	1.03	0.463	0.42	0.5	0.42	0.83	0.694	0.738	0.78	0.784	0.737	0.815	0.733	1.05	0.997	0.993	0.929
NCI-H2087	1.32	0.952	1.12	0.814	1.31	1.46	1.33	1.15	0.837	1.09	0.86	0.655	0.179	0.23	0.193	0.201	1.18	1.11	1.01	0.896

Cell Line	relative viability ([1]; first compound 0.253 µM)	relative viability ([1]; first compound 0.8 µM)	relative viability ([1]; first compound 2.53 µM)	relative viability ([1]; first compound 8 µM)	relative viability ([2]; first compound 0.253 µM)	relative viability ([2]; first compound 0.8 µM)	relative viability ([2]; first compound 2.53 µM)	relative viability ([2]; first compound 8 µM)	relative viability ([3]; first compound 0.253 µM)	relative viability ([3]; first compound 0.8 µM)	relative viability ([3]; first compound 2.53 µM)	relative viability ([3]; first compound 8 µM)	relative viability ([4]; first compound 0.253 µM)	relative viability ([4]; first compound 0.8 µM)	relative viability ([4]; first compound 2.53 µM)	relative viability ([4]; first compound 8 µM)	relative viability ([5]; 0.253 µM)	relative viability ([5]; 0.8 µM)	relative viability ([5]; 2.53 µM)	relative viability ([5]; 8 µM)
CAL-12T	0.728	0.592	0.665	0.527	0.608	0.631	0.733	0.536	0.844	0.808	0.908	0.741	0.361	0.411	0.31	0.295	0.971	1.07	0.986	0.922
NCI-H2085	0.855	0.789	0.8	0.828	0.965	1.01	1.05	0.893	0.867	0.751	0.753	0.687	0.884	0.514	0.56	0.622	1.01	1.03	1.03	0.949
NCI-H650	0.333	0.817	0.98	0.842	1.01	1.21	0.967	1.04	0.654	0.454	0.411	0.456	1.13	0.958	1.04	0.956	1	1.03	1.05	0.893
LCLC-97TM1	0.599	0.935	0.911	0.582	0.39	0.297	0.236	0.234	0.858	1.01	0.818	0.646	0.215	0.215	0.178	0.23	1.08	1.1	1.02	0.92
NCI-H2126	0.761	0.741	0.78	0.748	0.999	1.08	1.02	1.01	0.734	0.834	0.718	0.752	0.573	0.577	0.541	0.509	0.986	1.01	0.997	0.957
201T	1.1	0.969	1.01	0.999	0.623	0.591	0.614	0.725	1.1	0.88	0.978	0.927	0.704	0.705	0.697	0.692	1.05	0.976	0.953	0.986
NCI-H1915	1.01	0.968	0.993	0.972	0.655	0.625	0.767	0.737	0.511	0.512	0.495	0.518	0.282	0.294	0.342	0.296	1.01	1.01	0.956	0.976
BEN	0.782	0.72	0.718	0.696	0.635	0.706	0.732	0.784	0.512	0.512	0.63	0.631	0.995	1.14	1.03	0.936	0.941	0.998	1.03	0.91
NCI-H2347	0.937	1.03	1.08	0.672	0.936	0.676	0.702	0.765	0.521	0.638	0.526	0.506	0.422	0.276	0.296	0.29	1.08	1.07	1.09	0.961
H3255	0.245	0.235	0.227	0.255	0.892	0.755	0.911	0.747	0.753	0.811	0.955	0.778	0.515	0.643	0.57	0.589	0.924	0.953	0.948	0.96
NCI-H1975	0.966	0.847	0.936	0.876	0.624	0.79	0.764	0.613	0.663	0.754	0.73	0.712	0.559	0.493	0.337	0.641	1.04	0.93	1	0.897
NCI-H647	1.24	0.904	0.87	0.969	0.604	0.293	0.463	0.551	0.731	0.529	0.731	0.538	0.562	0.405	0.508	0.524	1.06	0.703	1.1	0.948
A-427	1.03	1	0.989	0.976	0.72	0.763	0.908	0.778	0.836	0.818	0.86	0.825	0.713	0.717	0.76	0.685	0.96	0.95	0.982	0.97
LXF-289	0.919	0.946	0.881	0.841	1.25	1.1	1.13	1.03	0.836	0.795	0.733	0.76	0.678	0.693	0.651	0.656	1.09	1.1	1	0.946
NCI-H727	0.75	0.699	0.782	0.769	0.664	0.834	0.579	0.551	1.13	1.12	1.36	1.23	0.372	0.393	0.412	0.392	0.963	0.943	0.969	1.05
NCI-H1437	0.818	0.868	0.781	0.761	1.21	1.22	1.15	1.09	0.827	0.979	0.861	0.868	0.549	0.558	0.459	0.458	1.01	1.01	0.992	0.945
